Assay results taken from BigSolDB 2.1.

Cc1ccc(-c2cc(C(F)(F)F)nn2-c2ccc(S(N)(=O)=O)cc2)cc1
solubility (mole fraction) (in NMP, 293.2 K): 0.0593 | solubility (mole fraction) (in NMP, 298.2 K): 0.0672 | solubility (mole fraction) (in NMP, 303.2 K): 0.0776 | solubility (mole fraction) (in NMP, 308.2 K): 0.0799 | solubility (mole fraction) (in NMP, 313.2 K): 0.0917 | solubility (mole fraction) (in isopropanol, 293.2 K): 0.00851 | solubility (mole fraction) (in isopropanol, 298.2 K): 0.00902 | solubility (mole fraction) (in isopropanol, 303.2 K): 0.0156 | solubility (mole fraction) (in isopropanol, 308.2 K): 0.0198 | solubility (mole fraction) (in isopropanol, 313.2 K): 0.0233
